Marks after values point to notes of the source that are not given here.
Columns and labels:
[1] = biological target: P-gp (Homo sapiens, UniProt P08183); assay: biochemical
[2] = known in vivo P-gp inhibitor; cited from earlier work
[3] = biological target: T1, human OCT1 (Homo sapiens, UniProt O15245); assay: cell-based
T1 sequence (O15245 1-554): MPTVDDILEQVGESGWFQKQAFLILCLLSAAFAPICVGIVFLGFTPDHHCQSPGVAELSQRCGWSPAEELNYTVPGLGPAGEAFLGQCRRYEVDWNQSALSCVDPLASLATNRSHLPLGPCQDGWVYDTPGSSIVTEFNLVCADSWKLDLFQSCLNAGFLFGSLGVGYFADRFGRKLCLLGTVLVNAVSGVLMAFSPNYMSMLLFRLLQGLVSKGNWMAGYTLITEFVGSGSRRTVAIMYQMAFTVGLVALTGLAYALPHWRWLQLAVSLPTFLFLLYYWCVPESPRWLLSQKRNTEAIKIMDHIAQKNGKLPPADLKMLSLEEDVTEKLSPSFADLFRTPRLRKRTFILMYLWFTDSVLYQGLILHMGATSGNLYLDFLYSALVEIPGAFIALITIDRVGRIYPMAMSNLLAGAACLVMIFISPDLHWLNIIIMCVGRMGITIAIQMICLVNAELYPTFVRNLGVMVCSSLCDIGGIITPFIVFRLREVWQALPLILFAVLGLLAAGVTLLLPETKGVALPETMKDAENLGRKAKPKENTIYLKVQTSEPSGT

[4] = tested on: transporters at major organ sites; assay: Prediction of transporter-mediated inhibition / DDI potential; parameters: species or system human; conditions: of 11 transporters; FDA criteria
[5] = biological target: T2, human OAT1 (Homo sapiens, UniProt Q4U2R8); assay: cell-based
T2 sequence (Q4U2R8 1-563): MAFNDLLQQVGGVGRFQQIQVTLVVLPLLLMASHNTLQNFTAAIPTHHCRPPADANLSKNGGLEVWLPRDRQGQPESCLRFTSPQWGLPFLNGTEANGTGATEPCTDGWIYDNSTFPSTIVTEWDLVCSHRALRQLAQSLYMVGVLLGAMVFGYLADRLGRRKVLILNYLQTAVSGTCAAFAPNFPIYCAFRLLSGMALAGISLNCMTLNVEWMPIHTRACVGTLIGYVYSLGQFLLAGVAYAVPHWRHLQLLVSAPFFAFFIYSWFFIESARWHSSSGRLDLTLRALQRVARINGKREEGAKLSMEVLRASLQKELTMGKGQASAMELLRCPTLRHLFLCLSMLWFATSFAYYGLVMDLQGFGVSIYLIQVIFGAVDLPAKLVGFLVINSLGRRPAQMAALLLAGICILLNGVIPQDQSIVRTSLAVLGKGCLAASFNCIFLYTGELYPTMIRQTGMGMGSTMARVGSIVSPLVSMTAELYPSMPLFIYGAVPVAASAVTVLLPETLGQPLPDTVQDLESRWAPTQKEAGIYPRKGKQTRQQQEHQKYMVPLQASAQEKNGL

[6] = biological target: T3, human OAT3 (Homo sapiens, UniProt Q8TCC7); assay: cell-based
T3 sequence (Q8TCC7 1-542): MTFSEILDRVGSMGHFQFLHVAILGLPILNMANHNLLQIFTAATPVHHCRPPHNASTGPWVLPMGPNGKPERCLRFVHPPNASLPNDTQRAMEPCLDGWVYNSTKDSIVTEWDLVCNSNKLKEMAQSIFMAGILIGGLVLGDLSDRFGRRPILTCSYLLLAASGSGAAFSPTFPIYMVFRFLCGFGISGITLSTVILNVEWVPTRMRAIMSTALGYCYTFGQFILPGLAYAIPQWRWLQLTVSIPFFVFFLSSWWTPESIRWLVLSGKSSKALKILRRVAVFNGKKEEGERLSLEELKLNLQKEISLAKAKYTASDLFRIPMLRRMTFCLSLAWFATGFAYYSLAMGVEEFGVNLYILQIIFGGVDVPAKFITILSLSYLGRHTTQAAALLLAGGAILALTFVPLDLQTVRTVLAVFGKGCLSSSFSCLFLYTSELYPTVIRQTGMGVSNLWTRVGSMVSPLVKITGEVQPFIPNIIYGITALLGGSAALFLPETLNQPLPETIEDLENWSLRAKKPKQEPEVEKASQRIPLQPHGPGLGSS

[7] = biological target: human MATE2 (Homo sapiens, UniProt Q86VL8); assay: cell-based
[8] = biological target: T4, BCRP (Homo sapiens, UniProt Q9UNQ0); assay: biochemical
T4 sequence (Q9UNQ0 1-655): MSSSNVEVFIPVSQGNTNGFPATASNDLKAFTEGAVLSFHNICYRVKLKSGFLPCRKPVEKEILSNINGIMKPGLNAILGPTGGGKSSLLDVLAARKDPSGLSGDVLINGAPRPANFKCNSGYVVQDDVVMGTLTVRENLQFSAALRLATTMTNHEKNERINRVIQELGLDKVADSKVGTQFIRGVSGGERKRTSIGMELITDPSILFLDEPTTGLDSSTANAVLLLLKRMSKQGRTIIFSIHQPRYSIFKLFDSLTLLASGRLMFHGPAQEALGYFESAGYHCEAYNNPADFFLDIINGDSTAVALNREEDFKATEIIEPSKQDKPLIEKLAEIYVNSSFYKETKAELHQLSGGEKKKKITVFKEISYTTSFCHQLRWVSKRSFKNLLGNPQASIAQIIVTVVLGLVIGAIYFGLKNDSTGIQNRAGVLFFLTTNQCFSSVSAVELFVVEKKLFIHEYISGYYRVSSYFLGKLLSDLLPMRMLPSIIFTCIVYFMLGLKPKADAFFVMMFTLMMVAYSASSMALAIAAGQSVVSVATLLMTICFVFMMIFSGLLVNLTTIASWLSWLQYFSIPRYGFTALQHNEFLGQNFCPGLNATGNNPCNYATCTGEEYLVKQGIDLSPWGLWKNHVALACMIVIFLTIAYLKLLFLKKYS

[9] = biological target: T5, human MATE1 (Homo sapiens, UniProt Q96FL8); assay: cell-based
T5 sequence (Q96FL8 1-570): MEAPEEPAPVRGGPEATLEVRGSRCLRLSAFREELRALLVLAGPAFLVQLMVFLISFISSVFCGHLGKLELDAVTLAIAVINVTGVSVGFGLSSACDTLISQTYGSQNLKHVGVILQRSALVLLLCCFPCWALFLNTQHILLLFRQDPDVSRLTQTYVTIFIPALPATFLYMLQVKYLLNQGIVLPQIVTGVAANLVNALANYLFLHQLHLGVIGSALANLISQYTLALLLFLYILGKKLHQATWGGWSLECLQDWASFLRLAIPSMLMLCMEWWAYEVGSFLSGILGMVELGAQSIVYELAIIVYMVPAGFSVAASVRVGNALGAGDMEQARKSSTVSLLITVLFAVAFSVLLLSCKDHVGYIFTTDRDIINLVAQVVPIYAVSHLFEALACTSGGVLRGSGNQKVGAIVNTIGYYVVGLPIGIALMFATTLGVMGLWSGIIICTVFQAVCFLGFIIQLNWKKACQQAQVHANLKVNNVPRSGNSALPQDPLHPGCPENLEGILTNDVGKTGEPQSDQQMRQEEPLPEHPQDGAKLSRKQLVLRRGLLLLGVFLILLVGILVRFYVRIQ

[10] = biological target: T6, human OATP2B1 (Homo sapiens, UniProt O94956); assay: cell-based; conditions: IC50 OATP2B1, experimental, mean ± SD; stable cells; substrate ES
T6 sequence (O94956 1-709): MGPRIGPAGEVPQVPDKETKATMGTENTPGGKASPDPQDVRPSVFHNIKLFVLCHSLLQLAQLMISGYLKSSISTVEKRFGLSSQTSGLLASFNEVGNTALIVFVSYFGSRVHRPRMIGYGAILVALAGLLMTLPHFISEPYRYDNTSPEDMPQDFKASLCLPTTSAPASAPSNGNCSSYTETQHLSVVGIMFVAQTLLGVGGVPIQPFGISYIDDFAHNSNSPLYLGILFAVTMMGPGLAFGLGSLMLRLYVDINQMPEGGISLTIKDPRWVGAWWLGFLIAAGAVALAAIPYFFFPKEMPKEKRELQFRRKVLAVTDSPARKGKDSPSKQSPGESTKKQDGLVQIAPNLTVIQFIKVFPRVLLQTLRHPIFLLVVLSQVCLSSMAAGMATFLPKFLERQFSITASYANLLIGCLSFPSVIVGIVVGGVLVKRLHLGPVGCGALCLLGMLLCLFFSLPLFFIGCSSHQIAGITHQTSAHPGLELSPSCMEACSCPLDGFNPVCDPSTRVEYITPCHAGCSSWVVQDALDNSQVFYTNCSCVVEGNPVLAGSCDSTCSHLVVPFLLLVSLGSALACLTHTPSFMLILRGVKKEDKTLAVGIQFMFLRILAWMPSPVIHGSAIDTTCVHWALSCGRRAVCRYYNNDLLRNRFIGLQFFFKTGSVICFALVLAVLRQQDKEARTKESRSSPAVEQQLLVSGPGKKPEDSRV

[11] = biological target: T3, human OAT3; conditions: human
[12] = biological target: T7, human OATP1B1 (Homo sapiens, UniProt Q9Y6L6); conditions: inhibits EG at one-tenth (or lower) the concentration that inhibits ES
T7 sequence (Q9Y6L6 1-691): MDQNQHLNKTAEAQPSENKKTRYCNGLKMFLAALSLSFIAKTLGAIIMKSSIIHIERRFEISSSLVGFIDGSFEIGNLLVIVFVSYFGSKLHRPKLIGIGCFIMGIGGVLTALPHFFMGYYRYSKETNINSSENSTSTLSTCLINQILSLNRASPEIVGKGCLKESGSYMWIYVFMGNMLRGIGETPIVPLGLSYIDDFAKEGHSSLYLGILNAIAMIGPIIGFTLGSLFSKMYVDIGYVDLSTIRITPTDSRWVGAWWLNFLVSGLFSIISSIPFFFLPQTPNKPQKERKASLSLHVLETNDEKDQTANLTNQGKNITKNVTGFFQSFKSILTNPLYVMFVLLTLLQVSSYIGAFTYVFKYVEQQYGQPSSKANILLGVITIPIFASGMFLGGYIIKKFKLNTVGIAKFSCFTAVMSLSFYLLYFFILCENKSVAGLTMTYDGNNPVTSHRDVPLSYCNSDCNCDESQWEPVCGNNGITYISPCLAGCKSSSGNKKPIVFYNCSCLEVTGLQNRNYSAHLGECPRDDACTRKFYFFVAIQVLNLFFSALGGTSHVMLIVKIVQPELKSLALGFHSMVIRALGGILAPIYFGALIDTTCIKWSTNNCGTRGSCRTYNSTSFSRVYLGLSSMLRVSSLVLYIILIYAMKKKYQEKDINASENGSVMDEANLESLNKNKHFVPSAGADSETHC

[13] = biological target: T1, human OCT1; conditions: human
[14] = biological target: T4, BCRP; conditions: cited from earlier work

Sequence of human MATE2 (Q86VL8 1-566 isoform Q86VL8-3): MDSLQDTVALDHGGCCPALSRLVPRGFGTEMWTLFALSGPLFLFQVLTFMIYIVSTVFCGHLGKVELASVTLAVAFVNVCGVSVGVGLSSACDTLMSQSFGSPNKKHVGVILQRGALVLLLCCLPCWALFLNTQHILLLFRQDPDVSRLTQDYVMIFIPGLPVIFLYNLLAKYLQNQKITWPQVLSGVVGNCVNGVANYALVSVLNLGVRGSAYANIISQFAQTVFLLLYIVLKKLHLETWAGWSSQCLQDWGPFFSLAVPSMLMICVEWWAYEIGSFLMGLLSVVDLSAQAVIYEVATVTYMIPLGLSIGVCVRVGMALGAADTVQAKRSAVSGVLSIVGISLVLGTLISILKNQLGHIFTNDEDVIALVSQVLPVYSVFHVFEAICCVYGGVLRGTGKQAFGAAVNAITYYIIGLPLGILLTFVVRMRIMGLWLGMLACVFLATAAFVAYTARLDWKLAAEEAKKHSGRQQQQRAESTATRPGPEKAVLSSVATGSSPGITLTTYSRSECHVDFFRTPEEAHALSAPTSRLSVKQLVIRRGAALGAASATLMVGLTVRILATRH
Sequence of P-gp (P08183 whole entry): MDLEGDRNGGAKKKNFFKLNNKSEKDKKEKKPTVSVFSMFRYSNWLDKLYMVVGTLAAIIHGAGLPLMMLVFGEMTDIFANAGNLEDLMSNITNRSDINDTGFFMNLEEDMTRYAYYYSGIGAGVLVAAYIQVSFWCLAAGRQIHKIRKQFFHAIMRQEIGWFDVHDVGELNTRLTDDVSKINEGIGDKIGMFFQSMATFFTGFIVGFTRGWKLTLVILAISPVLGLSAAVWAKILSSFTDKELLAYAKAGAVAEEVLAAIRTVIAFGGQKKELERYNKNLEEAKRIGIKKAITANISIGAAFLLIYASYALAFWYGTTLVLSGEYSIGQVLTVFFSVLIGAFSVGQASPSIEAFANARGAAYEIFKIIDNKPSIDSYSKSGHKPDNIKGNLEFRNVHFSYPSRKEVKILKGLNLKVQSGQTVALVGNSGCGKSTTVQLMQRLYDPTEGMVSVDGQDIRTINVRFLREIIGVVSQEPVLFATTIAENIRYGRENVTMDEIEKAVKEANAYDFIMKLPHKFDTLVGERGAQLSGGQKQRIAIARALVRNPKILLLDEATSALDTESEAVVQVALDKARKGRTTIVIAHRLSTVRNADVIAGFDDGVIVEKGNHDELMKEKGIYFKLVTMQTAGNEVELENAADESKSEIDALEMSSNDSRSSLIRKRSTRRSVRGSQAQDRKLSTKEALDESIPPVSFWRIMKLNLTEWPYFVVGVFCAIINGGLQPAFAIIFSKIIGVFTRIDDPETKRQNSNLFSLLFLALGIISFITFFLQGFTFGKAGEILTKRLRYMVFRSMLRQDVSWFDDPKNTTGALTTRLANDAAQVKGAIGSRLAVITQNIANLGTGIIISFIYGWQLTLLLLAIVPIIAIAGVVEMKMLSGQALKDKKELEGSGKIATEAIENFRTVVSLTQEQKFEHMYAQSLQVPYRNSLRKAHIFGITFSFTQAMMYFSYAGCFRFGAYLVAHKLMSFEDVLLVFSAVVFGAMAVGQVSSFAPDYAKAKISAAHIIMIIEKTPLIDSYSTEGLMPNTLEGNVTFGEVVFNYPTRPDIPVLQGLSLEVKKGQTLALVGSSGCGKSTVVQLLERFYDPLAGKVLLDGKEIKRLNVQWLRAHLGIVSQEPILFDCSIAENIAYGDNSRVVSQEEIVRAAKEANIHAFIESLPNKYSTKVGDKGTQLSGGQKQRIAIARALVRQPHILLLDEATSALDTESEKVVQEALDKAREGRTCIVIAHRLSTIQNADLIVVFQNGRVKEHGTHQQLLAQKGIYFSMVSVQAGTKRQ

SMILES | IC50 [1] | effect on plasma levels of P-gp substrates [2] | IC50 [3] | No. of transporters at major organ sites inhibited at clinical concentrations [4] | IC50 [5] | IC50 [6] | IC50 [7] | IC50 [8] | IC50 [9] | IC50 [10] | Cu,max/IC50 OAT3 [11] | potency difference of the inhibitor for [3H]-EG vs [3H]-ES as OATP1B1 probes [12] | Iu,in,max/IC50 OCT1 [13] | inhibition of BCRP (in words) [14]
CC[C@H]1OC(=O)[C@H](C)[C@@H](O[C@H]2C[C@@](C)(OC)[C@@H](O)[C@H](C)O2)[C@H](C)[C@@H](O[C@@H]2O[C@H](C)C[C@H](N(C)C)[C@H]2O)[C@](C)(O)C[C@@H](C)CN(C)[C@H](C)[C@@H](O)[C@]1(C)O [Azithromycin] | 18 µM | increases plasma levels of the non‐sedating antihistamine, fexofenadine, and the anticoagulant, ximelagatran | > 50 µM | 1 | > 50 µM | > 50 µM | > 50 µM | > 50 µM | > 50 µM |  |  |  |  | 
Cc1oncc1C(=O)Nc1ccc(C(F)(F)F)cc1 [Leflunomide] | > 100 µM |  | > 100 µM | 2 | > 100 µM |  |  |  | 9.5 ± 5.5 µM | 81.9 ± 36.1 µM |  |  |  | 
CCCCc1nc(Cl)c(CO)n1Cc1ccc(-c2ccccc2-c2nn[nH]n2)cc1 [Losartan] | > 100 µM |  | > 100 µM | 4 |  |  | > 100 µM | 4.8 ± 1.1 µM |  | 2.5 ± 0.7 µM | 0.02 ^a | > 10 fold |  | 
COc1ccc2cc1Oc1ccc(cc1)C[C@H]1c3cc(c(OC)cc3CCN1C)Oc1c(OC)c(OC)cc3c1[C@H](C2)N(C)CC3 [Tetrandrine] | 3.8 ± 1.1 µM |  | 8.6 µM | 1 | > 10 µM | > 10 µM | > 10 µM | > 10 µM | 1.2 ± 0.2 µM |  |  |  | 0.02 | 
O=C1CCC(N2C(=O)c3ccccc3C2=O)C(=O)N1 (stereo not shown) [Thalidomide] | 65 µM |  | > 100 µM | 1 | > 100 µM | 54.6 ± 2.4 µM | > 100 µM | > 100 µM | > 100 µM |  | 0.08 |  |  | 
CN1CC(=O)N2[C@H](c3ccc4c(c3)OCO4)c3[nH]c4ccccc4c3C[C@@H]2C1=O [tadalafil] |  |  |  |  |  |  |  |  |  |  |  |  |  | weak inhibitors of BCRP
CCCc1nc(C)c2c(=O)[nH]c(-c3cc(S(=O)(=O)N4CCN(CC)CC4)ccc3OCC)nn12 [vardenafil] |  |  |  |  |  |  |  |  |  |  |  |  |  | weak inhibitors of BCRP

— paper PMC8217266 (Clinical Pharmacology and Therapeutics, 2021)
